Experimental data from patent US8410153B2, “Naphthalene isoxazoline invertebrate pest control agents” (E.I. du Pont de Nemours and Company, priority 2007, dated 2013).

Experiments:
Format in all cases: in vivo
[1] = system: diamondback moth (Plutella xylostella); assay: Test A: control of diamondback moth on radish plant, foliar spray; settings: sprayed at 50 ppm, held 6 days
From the text: For evaluating control of diamondback moth (Plutella xylostella) the test unit consisted of a small open container with a 12-14-day-old radish plant inside. This was pre-infested with about 50 neonate larvae that were dispensed into the test unit via corncob grits using a bazooka inoculator. The larvae moved onto the test plant after being dispensed into the test unit.
(§1) Test compounds were formulated using a solution containing 10% acetone, 90% water and 300 ppm X-77™ Spreader Lo-Foam Formula non-ionic surfactant containing alkylarylpolyoxyethylene, free fatty acids, glycols and isopropanol (Loveland Industries, Inc. Greeley, Colo., USA). The formulated compounds were applied in 1 mL of liquid through a SUJ2 atomizer nozzle with ⅛ JJ custom body (Spraying Systems Co. Wheaton, Ill., USA) positioned 1.27 cm (0.5 inches) above the top of each test unit. All experimental compounds in these tests were sprayed at 50 ppm, and the test was replicated three times. After spraying of the formulated test compound, each test unit was allowed to dry for 1 h and then a black, screened cap was placed on top. The test units were held for 6 days in a growth chamber at 25° C. and 70% relative humidity. Plant feeding damage was then visually assessed based on foliage consumed, and a pest mortality rating was also counted and calculated for each test unit.

[2] = system: western flower thrips (Frankliniella occidentalis); assay: Test E: control of western flower thrips on Soleil bean plant, contact and/or systemic; settings: held 6 days
Procedure: as §1
For evaluating control of the western flower thrips (Frankliniella occidentalis) through contact and/or systemic means, the test unit consisted of a small open container with a 5-7-day-old Soleil Bean plant inside. Test compounds were formulated and sprayed as described for Test A. All experimental compounds in these tests were sprayed at 250 or 50 ppm as noted, and the test was replicated three times. After spraying, the test units were allowed to dry for 1 h, 22-27 adult thrips were added to each unit and then a black, screened cap was placed on top. The test units were held for 6 days at 25° C. and 45-55% relative humidity. A mortality rating was assessed along with a plant damage rating for each test unit.

[3] = system: fall armyworm (Spodoptera frugiperda); assay: Test B: control of fall armyworm on corn (maize) plant, foliar spray; settings: sprayed at 50 ppm
Procedure: as §1
For evaluating control of fall armyworm (Spodoptera frugiperda) the test unit consisted of a small open container with a 4-5-day-old corn (maize) plant inside. This was pre-infested (using a core sampler) with 10-15 1-day-old larvae on a piece of insect diet. Test compounds were formulated and sprayed at 50 ppm as described for Test A and replicated three times. After spraying, the test units were maintained in a growth chamber and then the control efficacy was rated for each test unit as described for Test A.

| Structure (SMILES) | levels of control efficacy (20% or less feeding damage or 80% or more mortality) [1] | levels of control efficacy (20% or less feeding damage or 80% or more mortality) ([2]; sprayed at 50 ppm) | levels of control efficacy (20% or less feeding damage or 80% or more mortality) ([2]; sprayed at 250 ppm) | levels of control efficacy (20% or less feeding damage or 80% or more mortality) [3] |
| --- | --- | --- | --- | --- |
| CC(C)C(NC(=O)c1ccc(C2=NOC(c3cc(Cl)cc(Cl)c3)(C(F)(F)F)C2)c2ccccc12)C(=O)NCC(F)(F)F (mixture of isomers) [Compound 2] | very good to excellent |  |  |  |
| CC(O)CCNC(=O)c1ccc(C2=NOC(c3cccc(C(F)(F)F)c3)(C(F)(F)F)C2)c2ccccc12 (mixture of isomers) [Compound 44] | very good to excellent | very good to excellent | very good to excellent |  |
| CCCNC(=O)C(C)NC(=O)c1ccc(C2=NOC(c3cc(C(F)(F)F)cc(C(F)(F)F)c3)(C(F)(F)F)C2)c2ccccc12 (mixture of isomers) [Compound 84] | very good to excellent | very good to excellent | very good to excellent |  |
| CC(NC(=O)c1ccc(C2=NOC(c3cc(C(F)(F)F)cc(C(F)(F)F)c3)(C(F)(F)F)C2)c2ccccc12)C(=O)NCC(F)(F)F (mixture of isomers) [Compound 94] | very good to excellent |  |  |  |
| CNC(=O)C(C)NC(=O)c1ccc(C2=NOC(c3cc(C(F)(F)F)cc(C(F)(F)F)c3)(C(F)(F)F)C2)c2ccccc12 (mixture of isomers) [Compound 95] | very good to excellent |  |  |  |
| CC(NC(=O)c1ccc(C2=NOC(c3cc(C(F)(F)F)cc(C(F)(F)F)c3)(C(F)(F)F)C2)c2ccccc12)C(=O)NCC(C)(C)C (mixture of isomers) [Compound 97] |  | very good to excellent |  |  |
| CC(NC(=O)CNC(=O)c1ccc(C2=NOC(c3cc(C(F)(F)F)cc(C(F)(F)F)c3)(C(F)(F)F)C2)c2ccccc12)C(F)(F)F (mixture of isomers) [Compound 104] | very good to excellent |  |  |  |
| CC(NC(=O)c1ccc(C2=NOC(c3cc(Cl)cc(C(F)(F)F)c3)(C(F)(F)F)C2)c2ccccc12)C(=O)NCC(F)(F)F (mixture of isomers) [Compound 106] | very good to excellent | very good to excellent | very good to excellent |  |
| CC(C)NC(=O)C(C)NC(=O)c1ccc(C2=NOC(c3cc(Cl)cc(C(F)(F)F)c3)(C(F)(F)F)C2)c2ccccc12 (mixture of isomers) [Compound 107] | very good to excellent | very good to excellent | very good to excellent |  |
| CCCNC(=O)C(C)NC(=O)c1ccc(C2=NOC(c3cc(Cl)cc(C(F)(F)F)c3)(C(F)(F)F)C2)c2ccccc12 (mixture of isomers) [Compound 108] | very good to excellent | very good to excellent | very good to excellent |  |
| CNC(=O)C(C)NC(=O)c1ccc(C2=NOC(c3cc(Cl)cc(C(F)(F)F)c3)(C(F)(F)F)C2)c2ccccc12 (mixture of isomers) [Compound 109] | very good to excellent | very good to excellent | very good to excellent |  |
| CCNC(=O)C(C)NC(=O)c1ccc(C2=NOC(c3cc(Cl)cc(C(F)(F)F)c3)(C(F)(F)F)C2)c2ccccc12 (mixture of isomers) [Compound 110] | very good to excellent | very good to excellent | very good to excellent |  |
| CC(C)CNC(=O)C(C)NC(=O)c1ccc(C2=NOC(c3cc(Cl)cc(C(F)(F)F)c3)(C(F)(F)F)C2)c2ccccc12 (mixture of isomers) [Compound 111] | very good to excellent | very good to excellent | very good to excellent |  |
| CC(NC(=O)c1ccc(C2=NOC(c3cc(Cl)cc(C(F)(F)F)c3)(C(F)(F)F)C2)c2ccccc12)C(=O)NCC(C)(C)C (mixture of isomers) [Compound 112] | very good to excellent |  | very good to excellent |  |
| CNC(=O)C(C)NC(=O)c1ccc(C2=NOC(c3cc(Cl)cc(C(F)(F)F)c3)(C(F)(F)F)C2)c2ccccc12 (mixture of isomers) [Compound 125] |  |  |  | very good to excellent |
| CCNC(=O)C(C)NC(=O)c1ccc(C2=NOC(c3cc(Cl)cc(C(F)(F)F)c3)(C(F)(F)F)C2)c2ccccc12 (mixture of isomers) [Compound 126] |  |  |  | very good to excellent |
| CC(NC(=O)c1ccc(C2=NOC(c3cc(Cl)cc(C(F)(F)F)c3)(C(F)(F)F)C2)c2ccccc12)C(=O)NCC(C)(C)C (mixture of isomers) [Compound 131] | very good to excellent |  | very good to excellent |  |
| CC(C)(CO)NC(=O)c1ccc(C2=NOC(c3cc(Cl)cc(Cl)c3)(C(F)(F)F)C2)c2ccccc12 (racemic) [Compound 32] | very good to excellent | very good to excellent | very good to excellent |  |
| O=C(NCCCO)c1ccc(C2=NOC(c3cccc(C(F)(F)F)c3)(C(F)(F)F)C2)c2ccccc12 (racemic) [Compound 42] | very good to excellent | very good to excellent | very good to excellent |  |
| CC(C)(C)SCCNC(=O)c1ccc(C2=NOC(c3cccc(C(F)(F)F)c3)(C(F)(F)F)C2)c2ccccc12 (racemic) [Compound 57] | very good to excellent |  |  |  |
| O=C(CCNC(=O)c1ccc(C2=NOC(c3cc(Cl)cc(Cl)c3)(C(F)(F)F)C2)c2ccccc12)NCC(F)(F)F (stereo not drawn) [Compound 9] | very good to excellent |  |  |  |
| CC(C)(CO)CNC(=O)c1ccc(C2=NOC(c3cccc(C(F)(F)F)c3)(C(F)(F)F)C2)c2ccccc12 (stereo not drawn) [Compound 61] | very good to excellent |  |  |  |
| O=C(CNC(=O)c1ccc(C2=NOC(c3cc(F)cc(F)c3)(C(F)(F)F)C2)c2ccccc12)NCC(F)(F)F (stereo not drawn) [Compound 73] | very good to excellent |  | very good to excellent |  |
| O=C(CNC(=O)c1ccc(C2=NOC(c3cccc(F)c3)(C(F)(F)F)C2)c2ccccc12)NCC(F)(F)F (stereo not drawn) [Compound 74] | very good to excellent |  |  |  |
| CC(C)NC(=O)CNC(=O)c1ccc(C2=NOC(c3cc(F)cc(F)c3)(C(F)(F)F)C2)c2ccccc12 (stereo not drawn) [Compound 75] | very good to excellent |  |  |  |
| CC(C)NC(=O)CNC(=O)c1ccc(C2=NOC(c3cccc(F)c3)(C(F)(F)F)C2)c2ccccc12 (stereo not drawn) [Compound 76] | very good to excellent |  |  |  |
| CSCCNC(=O)c1ccc(C2=NOC(c3cc(F)cc(F)c3)(C(F)(F)F)C2)c2ccccc12 (stereo not drawn) [Compound 77] | very good to excellent |  | very good to excellent |  |
| CSCCNC(=O)c1ccc(C2=NOC(c3cccc(F)c3)(C(F)(F)F)C2)c2ccccc12 (stereo not drawn) [Compound 78] | very good to excellent |  |  |  |
| CS(=O)(=O)CCNC(=O)c1ccc(C2=NOC(c3cc(F)cc(F)c3)(C(F)(F)F)C2)c2ccccc12 (stereo not drawn) [Compound 80] | very good to excellent |  | very good to excellent |  |
